# Laboratory results: article PMC10974930, “Synthesis and Antioxidant Activities of Novel Pyrimidine Acrylamides as Inhibitors of Lipoxygenase: Molecular Modeling and In Silico Physicochemical Studies” (Molecules, 2024)
# Molecular target: T1, soybean lipoxygenase (Glycine max, UniProt P08170)
# T1 construct: gene LOX1.1
# T1 sequence (P08170 1-839): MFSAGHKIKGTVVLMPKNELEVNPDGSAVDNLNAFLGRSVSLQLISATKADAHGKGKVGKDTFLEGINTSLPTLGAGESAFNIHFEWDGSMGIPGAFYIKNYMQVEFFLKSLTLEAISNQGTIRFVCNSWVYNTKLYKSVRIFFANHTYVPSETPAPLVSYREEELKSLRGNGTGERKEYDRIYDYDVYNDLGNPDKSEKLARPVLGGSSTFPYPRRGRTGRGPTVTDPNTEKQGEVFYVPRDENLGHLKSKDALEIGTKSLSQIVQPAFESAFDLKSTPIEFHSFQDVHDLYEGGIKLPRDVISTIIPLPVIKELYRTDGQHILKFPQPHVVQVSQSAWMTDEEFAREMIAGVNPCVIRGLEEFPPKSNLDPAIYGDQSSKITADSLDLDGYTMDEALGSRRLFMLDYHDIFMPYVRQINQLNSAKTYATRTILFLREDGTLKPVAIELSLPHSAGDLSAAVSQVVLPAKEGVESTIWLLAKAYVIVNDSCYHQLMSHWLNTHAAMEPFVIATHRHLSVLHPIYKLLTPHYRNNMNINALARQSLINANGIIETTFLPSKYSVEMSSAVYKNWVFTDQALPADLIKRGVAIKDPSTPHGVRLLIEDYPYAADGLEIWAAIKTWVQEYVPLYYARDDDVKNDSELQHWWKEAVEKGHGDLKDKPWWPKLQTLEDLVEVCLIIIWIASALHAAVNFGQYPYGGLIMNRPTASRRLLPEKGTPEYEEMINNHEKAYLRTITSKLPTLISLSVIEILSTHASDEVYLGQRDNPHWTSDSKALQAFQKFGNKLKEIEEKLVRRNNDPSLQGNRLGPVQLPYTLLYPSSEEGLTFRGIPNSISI
# Experiment: UV assay at […] nm of sodium linoleate oxidation by soybean lipoxygenase (Sigma)
# Type: biochemical
# Settings: read-out: % Inhibition of LOX 100 μM or IC50 (μM) *
row,IC50 [µM],SMILES
1,10.7,"O=Nc1c(NC(=O)/C=C/c2cccs2)[nH]c(N2CCCCC2)nc1=O [compound 5, (E)-N-(5-nitroso-6-oxo-2-(piperidin-1-yl)-3,6-dihydropyrimidin-4-yl)-3-(thiophen-2-yl)acrylamide]"
2,1.1,"O=Nc1c(NC(=O)/C=C/c2cccc3ccccc23)[nH]c(N2CCCCC2)nc1=O [compound 9, (E)-3-(naphthalen-1-yl)-N-(5-nitroso-6-oxo-2-(piperidin-1-yl)-3,6-dihydropyrimidin-4-yl)acrylamide]"
